Target: T1, TRAP1 enzyme (Homo sapiens, UniProt Q12931)
T1 sequence (Q12931 60-704): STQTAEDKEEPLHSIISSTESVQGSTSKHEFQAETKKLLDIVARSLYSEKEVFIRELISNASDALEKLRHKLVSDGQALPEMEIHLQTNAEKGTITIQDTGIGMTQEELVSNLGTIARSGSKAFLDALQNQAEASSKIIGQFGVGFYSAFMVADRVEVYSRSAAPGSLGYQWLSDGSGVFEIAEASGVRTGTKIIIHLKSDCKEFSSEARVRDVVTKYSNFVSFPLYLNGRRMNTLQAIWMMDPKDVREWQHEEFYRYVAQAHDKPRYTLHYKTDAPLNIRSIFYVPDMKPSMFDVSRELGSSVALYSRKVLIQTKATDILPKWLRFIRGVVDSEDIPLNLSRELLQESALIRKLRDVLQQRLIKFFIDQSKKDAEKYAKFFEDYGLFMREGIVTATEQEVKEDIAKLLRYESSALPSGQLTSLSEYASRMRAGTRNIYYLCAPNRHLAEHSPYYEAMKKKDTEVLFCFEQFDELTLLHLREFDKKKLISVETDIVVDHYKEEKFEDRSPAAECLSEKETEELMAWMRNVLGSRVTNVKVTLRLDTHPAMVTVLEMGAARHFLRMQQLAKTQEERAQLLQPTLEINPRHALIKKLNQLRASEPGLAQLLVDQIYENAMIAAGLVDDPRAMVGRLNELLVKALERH
Assay: Malachite green phosphate assay of TRAP1 ATPase activity
Assay type: biochemical
Settings: for EC50: TRAP1 ATPase activation, 150 nM Trap1, 20 μM ATP, geometric mean, read-out: Malachite Green Fluor DRC: GeoMean EC50; for Emax: read-out: Malachite Green Fluor DRC: Mean Emax
Description: The Potency of test compounds to modulate the ATPase activity of TRAP1 enzyme was evaluated using malachite green phosphatase assay. The assay is based on quantification of the green complex formed between Malachite Green, molybdate and inorganic phosphate generated in the phosphatase reaction. Assays were performed using a Malachite Green assay kit. All the assays were carried out in a 96-well transparent plate. The buffer used was 50 mM HEPES (pH 7.5), 20 mM KCl, 4 mM MgCl2 and 0.05% BSA. 150 nM Trap1 enzyme was incubated with various concentrations of the test compound (0.78 μM-100 μM) at 37° C. for 30 mins. 20 μM ATP was added to each well (except blank wells) to start the reaction and the plate was then incubated at 37° C. for 180 mins. 10 μl of the reaction volume of each sample was then transferred to a white 384-well proxiplate in quadruplets. 2.5 μl of Malachite Green reagent was added to all the wells and the plate was equilibrated for 15 mins. The reaction was stopped by adding 12% H2SO4 and the plate was read for fluorescence at 620 nm (λex=573 nm). The amount of phosphate released was estimated from a phosphate standard curve generated at the same experimental conditions. Emax (Maximal percent activation) and EC50 (concentration of test compound for half maximal activation) were estimated by fitting the dose response data to a sigmoidal curve fitting equation using Graphpad Prism software V.7.0.

EC50 [µM] | Emax [%] | SMILES
10 to 20 | 160 to 199 | CCOC(=O)CCCCCN(c1ccc(Br)cc1)S(=O)(=O)c1cc(NC(=O)c2cnc(C(F)(F)F)[nH]2)ccc1OC [Compound 263]
10 to 20 | 160 to 199 | COc1ccc(NC(=O)c2cnc(C(F)(F)F)[nH]2)cc1S(=O)(=O)N(CCCCCC(=O)O)c1ccc(Br)cc1 [Compound 264]
< 10 | 160 to 199 | COc1ccc(NC(=O)c2cnc[nH]2)cc1S(=O)(=O)N(CCCCCCN)c1ccc(Br)cc1 [Compound 266, N-(3-(N-(6-aminohexyl)-N-(4-bromophenyl)sulfamoyl)-4-methoxyphenyl)-1H-imidazole-5-carboxamide]
10 to 20 | 200 to 300 | CCc1ccc(NC(=O)c2cnc(C(F)(F)F)[nH]2)cc1S(=O)(=O)Nc1ccc(C)cc1 [Compound 270]
10 to 20 | 160 to 199 | Cc1ccc(NS(=O)(=O)c2cccc(NC(=O)c3cnc(C(F)(F)F)[nH]3)c2)cc1 [Compound 271]
10 to 20 | 200 to 300 | O=C(Nc1ccc(OCCCCCCO)c(S(=O)(=O)Nc2ccc(Br)cc2)c1)c1cnc[nH]1 [Compound 274]
10 to 20 | 123 to 159 | CCc1ccc(NC(=O)c2cnccc2C)cc1S(=O)(=O)Nc1ccc(C)cc1 [Compound 277]
10 to 20 | 160 to 199 | Cc1ccc(NS(=O)(=O)c2cc(NC(=O)c3cnc(C(F)(F)F)[nH]3)ccc2F)cc1 [Compound 278]
< 10 | 160 to 199 | COc1ccc(NC(=O)c2cnc[nH]2)cc1S(=O)(=O)N(CCOCCOCCBr)c1ccc(Br)cc1 [Compound 286]
< 10 | 200 to 300 | COc1ccc(NC(=O)c2cnc[nH]2)cc1S(=O)(=O)N(CCOCCOCC[P+](c1ccccc1)(c1ccccc1)c1ccccc1)c1ccc(Br)cc1 [Compound 296]
20 to 100 | 160 to 199 | COc1ccc(NC(=O)c2ocnc2C)cc1S(=O)(=O)Nc1ccc(Br)cc1 [Compound 299]
20 to 100 | 160 to 199 | O=C(Nc1cccc(S(=O)(=O)Nc2ccc(Br)cc2)c1)c1ncco1 [Compound 302]
10 to 20 | 160 to 199 | CCCN(c1ccc(Br)cc1)S(=O)(=O)c1cccc(NC(=O)c2ncco2)c1 [Compound 303]
10 to 20 | 200 to 300 | COc1ccc(NC(=O)c2nccs2)cc1S(=O)(=O)Nc1ccc(Br)cc1 [Compound 304]
20 to 100 | 160 to 199 | COc1ccc(NC(=O)c2ncco2)cc1S(=O)(=O)Nc1ccc(C)cc1 [Compound 307]
20 to 100 | 123 to 159 | COc1ccc(NC(=O)c2ncco2)cc1S(=O)(=O)N1CCOCC1 [Compound 309]
20 to 100 | 123 to 159 | O=C(Nc1ccc(F)c(S(=O)(=O)Nc2ccc(F)cc2)c1)c1ncco1 [Compound 314]
10 to 20 | 160 to 199 | COc1ccc(NC(=O)c2oc(C(F)(F)F)nc2C)cc1S(=O)(=O)Nc1ccc(Br)cc1 [Compound 315]
20 to 100 | 200 to 300 | CCc1ccc(NC(=O)c2ncco2)cc1S(=O)(=O)Nc1ccc(C(F)(F)F)cc1 [Compound 316]
10 to 20 | 160 to 199 | CCOC(=O)Cc1ccc(NC(=O)c2cnccc2C)cc1S(=O)(=O)Nc1ccc(C)cc1 [Compound 317]
20 to 100 | 200 to 300 | Cc1ccc2c(c1)OCCN2S(=O)(=O)c1cccc(NC(=O)c2ncco2)c1 [Compound 324]

EC50 [µM] | Emax [%] | SMILES
20 to 100 | 200 to 300 | CCOC(=O)Cc1ccc(NC(=O)c2ncco2)cc1S(=O)(=O)Nc1ccc(Br)cc1 [Compound 332]
20 to 100 | 160 to 199 | O=C(Nc1ccc(CCO)c(S(=O)(=O)Nc2ccc(Br)cc2)c1)c1ncco1 [Compound 333, N-(3-(N-(4-bromophenyl)sulfamoyl)-4-(2-hydroxyethyl)phenyl) oxazole-2-carboxamide]
20 to 100 | 200 to 300 | CN(c1ccc(Br)cc1)S(=O)(=O)c1cc(NC(=O)c2cnc[nH]2)ccc1OCCCCCCO [Compound 342]
20 to 100 | 200 to 300 | COc1ccc(NC(=O)c2nccs2)cc1S(=O)(=O)Nc1ccc(F)cc1 [Compound 345]
20 to 100 | 200 to 300 | COc1ccc(NC(=O)c2cnc(C(F)(F)F)[nH]2)cc1S(=O)(=O)Nc1ccc(F)cc1C [Compound 348]
20 to 100 | 200 to 300 | COc1ccc(NC(=O)c2nccs2)cc1S(=O)(=O)Nc1ccc(Cl)cc1 [Compound 349]
20 to 100 | 200 to 300 | COc1ccc(NC(=O)c2cnc(C(F)(F)F)[nH]2)cc1S(=O)(=O)Nc1ccc(-c2ccccc2)cc1 [Compound 353]
20 to 100 | 200 to 300 | NCCCCCCOc1ccc(NC(=O)c2cnc[nH]2)cc1S(=O)(=O)Nc1ccc(Br)cc1 [Compound 356, N-(4-((6-aminohexyl)oxy)-3-(N-(4-bromophenyl)sulfamoyl)phenyl)-1H-imidazole-4-carboxamide]
20 to 100 | 200 to 300 | COc1ccc(NC(=O)c2cnc(C(F)(F)F)[nH]2)cc1S(=O)(=O)Nc1ccc(C(C)(C)C)cc1 [Compound 360]
< 10 | > 300 | CN(c1ccc(Br)cc1)S(=O)(=O)c1cc(NC(=O)c2cnc[nH]2)ccc1OCCCCCC[P+](c1ccccc1)(c1ccccc1)c1ccccc1 [Compound 363]
20 to 100 | 160 to 199 | COc1ccc(NC(=O)c2cn(C)c(C(F)(F)F)n2)cc1S(=O)(=O)Nc1ccc(Br)cc1 [Compound 364]
20 to 100 | 200 to 300 | O=C(Nc1cccc(S(=O)(=O)N2CCOc3cc(Cl)ccc32)c1)c1ncco1 [Compound 367]
20 to 100 | 200 to 300 | COc1ccc(NC(=O)c2cnc(C(F)(F)F)[nH]2)cc1S(=O)(=O)Nc1cccc(C(C)(C)C)c1 [Compound 368]
< 10 | 160 to 199 | COc1ccc(NC(=O)c2ncc(-c3ccccc3)o2)cc1S(=O)(=O)Nc1ccc(Cl)cc1 [Compound 369]
20 to 100 | 200 to 300 | COc1ccc(NC(=O)c2nc(C(F)(F)F)cs2)cc1S(=O)(=O)Nc1ccc(Br)cc1 [Compound 370, N-(3-(N-(4-bromophenyl)sulfamoyl)-4-methoxyphenyl)-4-(trifluoromethyl) thiazole-2-carboxamide]
20 to 100 | 160 to 199 | O=C(Nc1cccc(S(=O)(=O)N2CCOc3ccccc32)c1)c1ncco1 [Compound 372]
20 to 100 | 160 to 199 | O=C(Nc1cccc(S(=O)(=O)N2CCOc3cc(F)ccc32)c1)c1ncco1 [Compound 377]
< 10 | 160 to 199 | COc1ccc(NC(=O)c2cnc(-c3ccccc3)[nH]2)cc1S(=O)(=O)Nc1ccc(N=[N+]=[N-])cc1 [Compound 380, N-(3-(N-(4-azidophenyl)sulfamoyl)-4-methoxyphenyl)-2-phenyl-1H-imidazole-5-carboxamide]
20 to 100 | 123 to 159 | COc1ccc(NC(=O)c2cnc[nH]2)cc1S(=O)(=O)Nc1ccc(C(C2N=N2)C(F)(F)F)cc1 (stereo not drawn) [Compound 398]
< 10 | 160 to 199 | COc1ccc(NC(=O)c2cnc(-c3ccccc3)[nH]2)cc1S(=O)(=O)Nc1ccc(Cl)cc1 [Compound 404]
20 to 100 | 200 to 300 | Cc1ccc2c(c1)CCN2S(=O)(=O)c1cccc(NC(=O)c2ocnc2C)c1 [Compound 407]

Reference: US20230174523A1, “BENZENESULFONAMIDE DERIVATIVES AS TRAP1 MODULATORS AND USES THEREOF” (Amathus Therapeutics, Inc., priority 2020, published 2023)
